Measurements taken from PMC3693772, “Protein expression, biochemical pharmacology of signal transduction, and relation to intraocular pressure modulation by bradykinin B2 receptors in ciliary muscle” (Molecular Vision, 2013).
Square brackets hold non-standard residues; d marks the D form. Peptide text beside a SMILES is read from it. * marks the point of attachment. X1 = COc1ccc(C[C@@H](CN[C@@H](CCCNC(=N)N)C(=O)O)N*)cc1; Hyp = O=C(O)[C@@H]1C[C@@H](O)CN1; 2Thi = N[C@@H](Cc1cccs1)C(=O)O

Assays:
human cloned B2 receptor = molecular target: T1, human cloned B2 receptor (Homo sapiens, UniProt P30411); assay: [^3H]-BK binding to human cloned B2 receptor (CHO-B2 membranes); conditions: 0.2 nM [^3H]-BK, CHO-B2 homogenates 2.5 µg protein, 60 min, 23 °C, 50 mM Tris/HCl pH 7.4; mean±SEM, up to 19 experiments; read-out: Ligand binding inhibition constant at human cloned B2 receptors (Ki)
T1 construct: purchased Euroscreen, Gosselies, Belgium; host or cells: CHO cells (recombinant, CHO-B2), used as cell homogenates/membranes
T1 sequence (P30411 1-391): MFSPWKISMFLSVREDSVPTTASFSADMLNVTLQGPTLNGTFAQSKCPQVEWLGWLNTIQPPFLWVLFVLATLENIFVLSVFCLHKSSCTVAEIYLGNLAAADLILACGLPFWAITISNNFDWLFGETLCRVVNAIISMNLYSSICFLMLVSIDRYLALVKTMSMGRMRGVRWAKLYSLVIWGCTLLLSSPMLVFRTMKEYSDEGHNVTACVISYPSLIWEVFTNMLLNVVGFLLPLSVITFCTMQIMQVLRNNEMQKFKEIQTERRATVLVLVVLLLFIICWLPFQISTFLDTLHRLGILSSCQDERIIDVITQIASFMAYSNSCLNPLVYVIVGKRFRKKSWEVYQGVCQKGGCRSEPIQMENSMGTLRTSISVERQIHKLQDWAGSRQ
Description: However, in view of the difficulty of obtaining sufficient h-CM cells for these initial studies, we decided to use cell membranes of Chinese hamster ovary cells containing the human cloned B2 receptor (CHO-B2; Euroscreen, Gosselies, Belgium). […] Following this incubation, the samples were filtered rapidly under vacuum through glass fiber filters (PerkinElmer) presoaked with 0.3% polyethyleneimine and rinsed several times with an ice-cold 50 mM Tris-HCl buffer using a 96-sample cell harvester (TomTec; Gaithersburg, MD). The filters were air-dried and the radioactivity counted in a beta-scintillation counter (TopCount, PerkinElmer). Data were analyzed using a sigmoidal-fit, iterative algorithm of a computer program designed to automatically fit the new data (Activity base; IDBS, Surrey, UK).

primary h-CM cells = format: cell-based, human; conditions: for Effect on background level of total PGs, h-CM cells: alone, up to 100 nM, single experiment; for Effect on total PGs induced by 1 µM BK, h-CM cells: pretreatment, challenge with 1 µM BK
Description: (§1) Measurement of prostaglandins in human ciliary muscle and Chinese hamster ovary cells expressing B2 receptors
(§2) This involved stimulating h-CM cells and CHO-B2 cells with various concentrations of test peptides and measuring the release of various PGs in the extracellular medium. The concentration-dependent effects of these peptides on total PGs, and specifically PGE2, PGF2α, and PGD2 release, were studied. Cells were grown as a monolayer in a 24-well plate (precoated with fibronectin) to confluence and subsequently serum-starved overnight before the experiment. On the day of the experiment, just before the drug was added, the wells were aspirated completely, and 990 µl basal medium and 10 µl 100× series of concentrations of the different peptide agonists were added to achieve the desired final concentrations of each compound (e.g., 0.1 nM to 10 µM). […] At the end of the incubation period, the cellular supernatants were collected and stored at −80 °C or used immediately to determine the PG content. Cell supernatants were tested for total PG levels and sub-species of PGs (PGE2, PGF2α, and PGD2) using specific competitive enzyme immunoassays (Cayman Chemical Co., Ann Arbor, MI) as directed in the manufacturer’s recommended protocols using the supplied standards and reagents. The limits of detection for various PGs were as follows: total PGs=29 pg/ml; PGE2=15 pg/ml; PGF2α=9 pg/ml; PGD2=200 pg/ml.

[1] = test system: CHO-B2 cells (human cloned B2 receptor); format: cell-based, Chinese hamster ovary cells; conditions: compound on its own
Description: as §1, §2

COX-1 and COX-2 = conditions: ref [43]; cited from earlier work

Row | Structure (SMILES) | Ki (human cloned B2 receptor) [nM] | Effect on BK concentration-response of PG release, h-CM cells (primary h-CM cells; 1 µM final, preincubated 5 min, three experiments) | Effect on background level of total PGs, h-CM cells (primary h-CM cells) | Effect on total PGs induced by 1 µM BK, h-CM cells (primary h-CM cells; three experiments) | PG production/release by compound alone, CHO-B2 cells [1] | COX-1/COX-2 inhibition selectivity (COX-1 and COX-2)
1 | CSCC[C@H](N)C(=O)N[C@@H](CCCCN)C(=O)N[C@@H](CCCNC(=N)N)C(=O)N1CCC[C@H]1C(=O)N1CCC[C@H]1C(=O)NCC(=O)N[C@@H](Cc1ccccc1)C(=O)N[C@@H](CO)C(=O)N1CCC[C@H]1C(=O)N[C@@H](Cc1ccccc1)C(=O)N[C@@H](CCCNC(=N)N)C(=O)O [Met-Lys-BK] | 73 ± 24.7 | – | – | – | – | –
2 | COc1ccc(C[C@@H](CN[C@@H](CCCNC(=N)N)C(=O)O)NC(=O)[C@@H]2CCCN2C(=O)[C@H](CO)NC(=O)[C@H](Cc2cccs2)NC(=O)CNC(=O)[C@@H]2C[C@@H](O)CN2C(=O)[C@@H]2CCCN2C(=O)[C@@H](N)CCCNC(=N)N)cc1 [RMP-7] (H-RP[Hyp]G[2Thi]SP-X1) | 11.3 ± 1.1 | – | – | – | – | –
3 | Nc1c(CC(=O)O)cccc1C(=O)c1ccc(Br)cc1 [bromfenac] | – | completely abolished PG synthesis and release | inhibited the background level of total PGs | concentration-dependent reduction in total PGs synthesized and secreted | failed to influence PG production | COX-2-selective
4 | CC(C(=O)O)c1ccc(-c2ccccc2)c(F)c1 (centres unmarked) [flurbiprofen] | – | – | inhibited the background level of total PGs | concentration-dependent reduction in total PGs synthesized and secreted, with flurbiprofen much more potent than bromfenac | failed to influence PG production | equally blocks COX-1 and COX-2
